Earlier results in patent US20110256545A1, “mRNA expression-based prognostic gene signature for non-small cell lung cancer” (priority 2010, published 2011).
Entries after “also recorded” stand apart in the source; their conditions may differ.

System: NCI-60 cell lines
Settings: the value is the cell line; for Resistant lung cancer cell lines: NCI-60 lung cancer (LC) cell lines classed as resistant to the agent; for Sensitive lung cancer cell lines: NCI-60 lung cancer (LC) cell lines classed as sensitive to the agent

Row | Structure (SMILES) | Resistant lung cancer cell lines | Sensitive lung cancer cell lines
1 | N.N.O=C([O-])C1(C(=O)[O-])CCC1.[Pt+2] [Carboplatin] | LC: EKVX | LC: NCI_H460; also recorded: LC: NCI_H522
2 | N.N.[Cl][Pt][Cl] [Cisplatin] | LC: NCI_H226; also recorded: LC: EKVX | LC: HOP_62; also recorded: LC: NCI_H460
3 | COc1cc([C@@H]2c3cc4c(cc3[C@@H](O[C@@H]3O[C@@H]5CO[C@@H](C)O[C@H]5[C@H](O)[C@H]3O)[C@H]3COC(=O)[C@H]23)OCO4)cc(OC)c1O [Etoposide] | LC: EKVX | LC: HOP_62; also recorded: LC: NIC_H460
4 | CC(=O)O[C@H]1C(=O)[C@@]2(C)[C@H]([C@H](OC(=O)c3ccccc3)[C@]3(O)C[C@H](OC(=O)[C@H](O)[C@@H](NC(=O)c4ccccc4)c4ccccc4)C(C)=C1C3(C)C)[C@]1(OC(C)=O)CO[C@@H]1C[C@@H]2O [Paclitaxel] | LC: HOP_92; also recorded: LC_EKVX | LC: NCI_H460; also recorded: LC: NCI_H522
